# According to patent publication US11668702B2, “Regulation of fungal fruiting body development” (The Chinese University of Hong Kong, priority 2017, dated 2023):
# Entries after “also recorded” stand apart in the source; their conditions may differ.
# Tests used:
# Pleurotus djamor [1] = experiment: Pleurotus djamor fruiting body development, LiCl in YMG agar; format: cell-based; conditions: 2 g/L LiCl in YMG agar; 10 days dark at 27° C., 10 days light/dark cycle at 25° C.
# Method: FIG. 12: Effect on Pleurotus djamor fruiting body development by GSK3 inhibitor-LiCl at different concentration. LiCl was added to YMG agar medium before autoclave. After 10-days all dark incubation in 27° C., the plates were transferred to 25° C. with 12-hours light and 12-hours dark cycle (light/dark cycle) for 10-days incubation. Mature fruiting bodies developed on the control plates.
# LiCl was added to YMG agar medium before autoclave. After 10-days all dark incubation in 27° C., the plates were transferred to 25° C. with 12-hours light and 12-hours dark cycle (light/dark cycle) for 10-days incubation. Mature fruiting bodies developed on the control plates.
# C. cinerea [2] = experiment: LiCl added at different developmental stages of C. cinerea; format: cell-based, Coprinopsis cinerea
# Method: FIG. 4: The development of C. cinerea treated with 0.1 ml of 3 g/L LiCl at different stage.
# FIG. 5: Life cycle of the mushroom-forming fungi, and the sensitive windows to the GSK-3 inhibitors (stages in grey). […] These stages are sensitive windows.
# The effect of LiCl at different developmental stages of C. cinerea were tested. 0.1 ml of 3 g/L LiCl were added to the agar plate.
# [3] = cited from earlier work
# [4] = test system: GSK-3 and its target genes; experiment: Quantitative real-time PCR of GSK-3 and its target genes under LiCl treatment; format: cell-based, Coprinopsis cinerea
# Method: FIG. 6: The gene expression levels are indicated by the abundance of segments on the cDNA, by real-time PCR. […] Glycogen synthase (CC1G_01973); GSK-3 protein kinase (CC1G_03802); eukaryotic translation initiation factor 1 (CC1G_03881); Uncharacterized protein with Ricin B-type lectin domain (CC1G_05298); Translation initiation factor eIF2 gamma subunit (CC1G_09429).
# The expression levels of targets genes of GSK-3 were measured to explore the mechanism of LiCl. To characterize the gene expression profile changes, quantitative real-time PCR analysis was performed. the kinase and its substrates by Orthologue searching were selected. A total of 83 GSK-3 substrates reported in human and mouse were mapped to the C. cinerea genome, and 52 orthologues were identified. Among them, CC1G_01973, CC1G_03881, and CC1G_09429 were selected for real-time PCR analysis. Samples treated by different doses of LiCl were frozen and homogenized in liquid nitrogen to extract total RNAs. […] Decreased eIF1 gene expression supports that LiCl block the fruiting through inhibiting GSK-3 activity in initiating the translation of key protein. Binding of eIF1 to 40S ribosome is key to maintain an open conformation on 40S ribosomal subunit to initiate translation (Passmore et al. 2007). Low level of eIF1 was also found to lower mRNA translation in Saccharomyces cerevisiae (You et al. 2010).
# C. cinerea [5] = experiment: Fruiting body development of C. cinerea on YMG agar with LiCl in or under the agar
# C. cinerea [6] = experiment: Mycelial growth rate of LiCl treated C. cinerea on YMG agar; format: cell-based, Coprinopsis cinerea
# Method: FIG. 3: Mycelial growth of C. cinerea with different doses of LiCl, biological triplicates were used for mean calculation.
# The mycelial growth rate was measured for the LiCl treated C. cinerea. Biological triplicates were cultivated on YMG agar plates at 37° C. in darkness, treated with different doses of LiCl. The mycelium growth was recorded for 4 days.
# Pleurotus djamor [7] = experiment: Self-healing ability and stability of mycelium blocks; conditions: 2 g/L LiCl in substrate; following 30 days
# Method: FIG. 8: Comparison of the self-healing ability between the mycelium blocks treated by heating and LiCl. The two group of mycelium blocks (e.g., Pleurotus djamor blocks) were broken in the middle. In each group, 3 blocks were spread with the solution of YMG broth and the other 3 blocks with ddH2O on the broken sites. The two parts of one block were incubated together for 3 days.
# The self-healing ability and stability of the living material is tested by comparison of the self-healing ability between the mycelium blocks treated by heating and LiCl. To prepare the demo mycelium blocks, water (as in group “Heat”) or 2 g/L LiCl water solution (as in group “Lithium”), sawdust, wheat bran and calcium carbonate were mixed as substrate and autoclaved the substrate. Then the Pleurotus djamor was inoculated to the substrate, and incubated under 27° C. continuous dark for 7 days. Then 30 g of the mixture of mycelium and substrate were transferred into molds of block, with same volume and pressure. The blocks were incubated under 27° C. continuous dark for another 7 days. Then the blocks of “Heat” group were dried by oven, and the block of “Lithium” group were dried by dehumidifier, to the same mass of the “Heat” group.
# The two group of mycelium blocks were broken in the middle. In each group, 3 blocks were spread with the solution of YMG broth and the other 3 blocks with ddH2O on the broken sites. […]
# C. cinerea [8] = experiment: LiCl clearance and fruiting body formation (Example 3); format: cell-based, Coprinopsis cinerea; conditions: washing mycelium and substrate with ddH2O or transfer onto clean substrate
# From the text: The LiCl inhibition of C. cinerea mycelium can be relieved by removing LiCl or diluting the concentration of LiCl, for example, by washing the mycelium and substrate with ddH2O, or by transferring the mycelium onto a clean substrate.
# C. cinerea [9] = experiment: C. cinerea fruiting body development, solution spread on YMG agar surface before inoculation (Example 5); format: cell-based, Coprinopsis cinerea
# Method: FIG. 9: Effect on C. cinerea fruiting body development by GSK3 inhibitor-LiCl at different concentration. Water or LiCl solution was spread on the surface of YMG agar, before inoculation. After 6-days all dark incubation in 37° C., the plates were transferred to 25° C. with 12-hours light and 12-hours dark cycle (light/dark cycle) for 5-days incubation. […] Initials and hyphal knots formed on the plates treated with 0.75 g/L and 1.5 g/L LiCl respectively.
# FIG. 10: Effect on C. cinerea fruiting body development by GSK3 inhibitor-CHIR-99021 HCl at different concentration. Water or CHIR-99021 HCl solution was spread on the surface of YMG agar, before inoculation. After the mycelium reached the edge of plates, the plates were transferred to 25° C. with light/dark cycle for 6-days incubation.
# FIG. 11: Effect on C. cinerea fruiting body development by GSK3 activator-Cisplatin at different concentration. Water or Cisplatin solution was spread on the surface of YMG agar, before inoculation. After the mycelium reached the edge of plates, the plates were transferred to 25° C. with light/dark cycle. […] Young fruiting body developed on the control YMG plates treated with water.
# Two GSK3 inhibitors (LiCl and CHIR-99021 HCl) and one GSK3 activator (Cisplatin) were tested in Coprinopsis cinerea, and one GSK3 inhibitor (LiCl) was tested in Pleurotus djamor (commonly known as the pink oyster mushroom). Belonging to the same order Agaricales, these two tested mushroom species are of two different families, Psathyrellaceae and Pleurotaceae, respectively.
# Water or LiCl solution was spread on the surface of YMG agar before inoculation of C. cinerea. After 6-days all dark incubation in 37° C., the plates were transferred to 25° C. with 12-hours light and 12-hours dark cycle (light/dark cycle) for 5-days incubation. […] Initials and hyphal knots were formed on the plates treated with 0.75 g/L and 1.5 g/L LiCl respectively.
# Water or CHIR-99021 HCl solution was spread on the surface of YMG agar before inoculation of C. cinerea. After the mycelium reached the edge of plates, the plates were transferred to 25° C. with light/dark cycle for 6-days incubation.
# Water or Cisplatin solution was spread on the surface of YMG agar before C. cinerea inoculation. After the mycelium reached the edge of plates, the plates were transferred to 25° C. with light/dark cycle. […] Young fruiting body developed on the control YMG plates treated with water.
# Pleurotus eryngii = conditions: cited from earlier work
# [10] = during spa use (PubChem Compound Database); cited from earlier work
# C. cinerea [11] = experiment: C. cinerea on YMG agar treated with CHIR-99021 HCl (Example 2); format: cell-based, Coprinopsis cinerea
# Method: Another GSK-3 inhibitor was used to confirm inhibition of LiCl on GSK-3. C. cinerea was cultivated on YMG agar and treated with water for control group and 1 uM, 100 uM and 500 uM of CHIR-99021 HCl for experimental group.
# [12] = different doses of LiCl, real-time PCR
smiles,measurement,setting,value
"[Cl-].[Li+] [LiCl, Lithium chloride]",Fruiting body development,Pleurotus djamor [1],failed to develop fruiting body
same,Further development after LiCl addition,C. cinerea [2]; 0.1 ml of 3 g/L LiCl added at initial,led to the arrest of their development; also recorded: led to inhibition on further development; also recorded: resulted in arrestment in fruiting body development
same,Further development after LiCl addition,C. cinerea [2]; 0.1 ml of 3 g/L LiCl added at stage-1 primordium,led to the arrest of their development; also recorded: led to inhibition on further development; also recorded: resulted in arrestment in fruiting body development
same,Further development after LiCl addition,C. cinerea [2]; 0.1 ml of 3 g/L LiCl added at stage-2 primordium,could continue to develop into fruiting bodies; also recorded: cannot inhibit the fruiting body development
same,Further development after LiCl addition,C. cinerea [2]; 0.1 ml of 3 g/L LiCl added at young fruiting body,could continue to develop into fruiting bodies; also recorded: cannot inhibit the fruiting body development
same,Further development after LiCl addition,C. cinerea [2]; LiCl intervention at hyphal knot,resulted in arrestment in fruiting body development
same,Further development after LiCl addition,C. cinerea [2]; LiCl intervention at mycelium,resulted in arrestment in fruiting body development
same,Solubility,[3],"soluble in water, ethanol, acetone, pyridine and nitrobenzene"
same,GSK-3 gene expression,[4]; 3 g/L LiCl mixed in the substrate,general decrease in GSK-3 gene expression
same,Expression level of GSK-3 gene and selected GSK-3 target genes,[4]; [12],could regulate the expression; also recorded: change the expression level
same,eIF1 gene expression,[4]; [12],decreased with increase of LiCl concentration
same,Effect on Fruiting body development,C. cinerea [5]; 1.5 g/L LiCl in agar,No
same,Effect on Fruiting body development,"C. cinerea [5]; 1.5 g/L LiCl under agar (concentration calculated with volume of sum of agar and H2O), 8 days",produced only a few initials and stage 1 primordia; also recorded: Retarded
same,Effect on Fruiting body development,C. cinerea [5]; 3 g/L LiCl in agar,absence of fruiting body and No
same,Effect on Fruiting body development,C. cinerea [5]; 3 g/L LiCl under agar (concentration calculated with volume of sum of agar and H2O),No
same,Effect on Fruiting body development,C. cinerea [5]; 6 g/L LiCl in agar,No
same,Effect on Fruiting body development,C. cinerea [5]; 6 g/L LiCl under agar (concentration calculated with volume of sum of agar and H2O),No
same,Fruiting body initiation,"C. cinerea [5]; LiCl concentration higher than 1.5 g/L, in the following 30 days",No initiation was observed
same,"Fruiting body initiation, dose dependence",C. cinerea [5]; LiCl in agar or under agar,inhibited the fruiting body initiation in a dose-dependent manner
same,Effect on Mycelium growth,C. cinerea [6]; 1.5 g/L LiCl in agar,higher than control; also recorded: Acceleration
same,Effect on Mycelium growth,C. cinerea [6]; 3 g/L LiCl in agar,higher than control; also recorded: acceleration in mycelium growth rate
same,Effect on Mycelium growth,C. cinerea [6]; 6 g/L LiCl in agar,inhibit the growth of mycelium; also recorded: Retarded
same,Initials and fruiting bodies on mycelium blocks,Pleurotus djamor [7],clear of initials and fruiting bodies
same,Fruiting after removing or diluting LiCl,C. cinerea [8],fruiting bodies develops again
same,Fruiting body development stage reached,"C. cinerea [9]; 0.375 g/L LiCl, 5 days light/dark cycle at 25° C.",Primordium were formed
same,Fruiting body development stage reached,"C. cinerea [9]; 0.75 g/L LiCl, 5 days light/dark cycle at 25° C.",Initials
same,Fruiting body development stage reached,"C. cinerea [9]; 1.5 g/L LiCl, 5 days light/dark cycle at 25° C.",hyphal knots
same,Fruiting body development stage reached,"C. cinerea [9]; 3 g/L LiCl, 5 days light/dark cycle at 25° C.",arrested in mycelium stage
same,Mycelium growth on plate,C. cinerea [9]; 6 g/L LiCl,stopped before reaching the edge of plates
same,Fruiting body development stage reached,"C. cinerea [9]; 6 g/L LiCl, 5 days light/dark cycle at 25° C.",arrested in mycelium stage
O=C([O-])[O-].[Li+].[Li+] [lithium carbonate],Lithium carbonate concentration at which fruiting body cannot form,Pleurotus eryngii,higher than 0.75 mM
"N.N.[Cl][Pt][Cl] [Cisplatin, cis-diamminedichloridoplatinum(II)]",Fruiting body development stage reached,"C. cinerea [9]; 1 ml saturated Cisplatin, 6 days light/dark cycle at 25° C.",had fruiting body and began autolysis
[Li] [Lithium],Skin absorption,[10],not absorbed through the skin
"Cc1cnc(-c2cnc(NCCNc3ccc(C#N)cn3)nc2-c2ccc(Cl)cc2Cl)[nH]1.Cl.Cl.Cl [CHIR-99021 HCl, 6-[[2-[[4-(2,4-Dichlorophenyl)-5-(5-methyl-1H-imidazol-2-yl)-2-pyrimidinyl]amino]ethyl]amino]-3-pyridinecarbonitrile trihydrochloride]",Fruiting body development,C. cinerea [11]; 1 uM CHIR-99021 HCl,developed initials
same,Fruiting body development,C. cinerea [11]; 100 uM CHIR-99021 HCl,developed initials
same,Fruiting body formation,C. cinerea [11]; concentration not given,inhibits fruiting body formation
same,Fruiting body development,C. cinerea [11]; higher CHIR-99021 HCl concentration (500 uM group),inhibited fruiting
same,Fruiting body development stage reached,"C. cinerea [9]; 1 μM CHIR-99021 HCl, 6 days light/dark cycle at 25° C.",Young fruiting bodies developed
same,Fruiting body development stage reached,"C. cinerea [9]; 100 μM CHIR-99021 HCl, 6 days light/dark cycle at 25° C.",developed primordium
same,Fruiting body development stage reached,"C. cinerea [9]; 500 μM CHIR-99021 HCl, 6 days light/dark cycle at 25° C., trihydrochloride",remained arrested in mycelium stage
